Test results taken from patent US5482975A, “Adenosine diphosphoribose polymerase binding nitroso aromatic compounds useful as retroviral inactivating agents, anti-retroviral agents and anti-tumor agents” (priority 1993, dated 1996).

Experiments:
[1] = system: ADPRT; details: cited from earlier work
[2] = system: 855-2 cells; assay: [3H] thymidine uptake / growth, 855-2 cells (FIG. 2A, E, F; FIG. 3); type: cell-based, human; details: for relative inhibition: 1 μM; for relative inhibition / inhibition / inhibitory effects with different growth factors: 10% fetal bovine serum; for inhibitory effects with different growth factors: AGF or BCGF
Protocol: FIGS. 2A-2F are a composite of graphs displaying the inhibitory effects of the ADRPT ligands on (FIG. 2A) 855-2 cells (a cell line of human B-cell lineage acute lymphoblastic leukemia), (FIG. 2B) H9 cells (a cell line of human T-cell lineage acute lymphoblastic leukemia), FIG. (2C) HL-60 cells (a cell line of human acute nonlymphoblastic leukemia) and (FIG. 2D) K562 cells (a cell line of human chronic myelogenous leukemia). These cells were cultured while under the influence of the growth factors in 10% fetal bovine serum (FCS), whereas in (FIG. 2E) and (FIG. 2F) the 855-2 cells were cultured in the presence of autocrine growth factor activity (AGF) or low molecular weight-B-cell growth factor (BCGF, a T-cell derived lymphokine), respectively.
Experiments using HL-60 cells (FIG. 2C) provided similar conclusions.
855-2 cells that were grown in media with (1) 10% fetal bovine serum, (2) autocrine growth factor (AGF) and (3) low molecular weight-BCGF (a T cell derived lymphokine) were exposed to increasing concentrations of the ADRPT ligands.

[3] = system: human leukemia cell lines (855-2, H9, HL-60, K562); assay: [3H] thymidine uptake, human leukemia cell lines together; type: cell-based; details: 10 μM; each of the cell lines tested
[4] = system: 855-2 cells; assay: cytocidal activity, MTT assay; type: cell-based, human; details: 10 μM; 100,000 cells/ml
Protocol: MTT (3-[4,5-[…]]-2,5-diphenyltetrazolium bromide) at 1 mg/ml was then added for 16 hours. The absorbance of the pelleted cell was then measured at 550 nm after adding DMSO to solubilze the cells.

[5] = system: HIV-1; assay: inhibition of HIV infection, virus titer in stimulated human lymphoblasts; type: cell-based; details: 30 min exposure, day 10, virus alone 5.25
Protocol: VIII. Anti-HIV action of NOBP, NOBA and NOQ on stimulated human lymphoblasts.
Exposure to the two drugs was only for 30 minutes at the commencement of viral infection, and drugs were never re-added. The results given in Table III provide the ID50 of HIV titer 10 days after infection of cell cultures with HIV.

[6] = system: anti-tumor and anti-HIV; assay: biological action of nitroso compounds (anti-tumor and anti-HIV, summary); type: cell-based; details: for anti-tumor and anti-HIV activity: effective even after exposure of cells as short as 30 minutes
[7] = system: H9 cells; assay: [3H] thymidine uptake, H9 cells (FIG. 2B); type: cell-based, human; details: 10% FCS
[8] = system: K562 cells; assay: [3H] thymidine uptake, K562 cells (FIG. 2D); type: cell-based, human; details: 10% fetal bovine serum
[9] = target: T1, calf thymus ADPRT (Bos taurus, UniProt P18493); assay: ADPRT polymerase activity inhibition / inactivation; type: biochemical
T1 construct: from tissue; host or cells: calf thymus
T1 sequence (P18493 whole entry): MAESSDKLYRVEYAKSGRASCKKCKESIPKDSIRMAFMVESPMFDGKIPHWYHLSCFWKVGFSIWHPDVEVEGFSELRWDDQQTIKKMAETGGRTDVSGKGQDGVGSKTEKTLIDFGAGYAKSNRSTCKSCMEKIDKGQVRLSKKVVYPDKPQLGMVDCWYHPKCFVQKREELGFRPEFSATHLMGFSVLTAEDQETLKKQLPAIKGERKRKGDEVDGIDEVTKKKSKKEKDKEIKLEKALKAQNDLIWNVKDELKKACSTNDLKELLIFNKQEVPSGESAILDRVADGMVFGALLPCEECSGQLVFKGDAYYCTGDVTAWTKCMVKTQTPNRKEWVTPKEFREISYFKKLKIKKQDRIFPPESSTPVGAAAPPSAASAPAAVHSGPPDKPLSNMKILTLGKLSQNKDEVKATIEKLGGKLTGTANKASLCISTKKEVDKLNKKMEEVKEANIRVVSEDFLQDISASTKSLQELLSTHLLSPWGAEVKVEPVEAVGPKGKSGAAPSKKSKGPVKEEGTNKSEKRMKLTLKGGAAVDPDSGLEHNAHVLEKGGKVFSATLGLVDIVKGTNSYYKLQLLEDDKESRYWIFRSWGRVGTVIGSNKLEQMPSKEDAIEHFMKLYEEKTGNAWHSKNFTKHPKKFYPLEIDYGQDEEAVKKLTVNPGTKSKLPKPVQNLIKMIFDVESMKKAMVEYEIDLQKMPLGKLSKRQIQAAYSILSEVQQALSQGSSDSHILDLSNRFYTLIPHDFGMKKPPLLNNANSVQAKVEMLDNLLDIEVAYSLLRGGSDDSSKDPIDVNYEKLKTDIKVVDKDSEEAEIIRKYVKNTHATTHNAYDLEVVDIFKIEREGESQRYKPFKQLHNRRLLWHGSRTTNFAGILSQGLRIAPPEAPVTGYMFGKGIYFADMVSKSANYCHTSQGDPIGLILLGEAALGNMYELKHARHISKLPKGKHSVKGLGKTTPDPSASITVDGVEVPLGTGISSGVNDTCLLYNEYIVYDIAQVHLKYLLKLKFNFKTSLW
Protocol: | Polymerization at 25° C. for 4 minutes.

[10] = system: normal rhesus bone marrow stem cells; assay: CFU stem cell toxicity assay (FIG. 5A)
[11] = target: Zn(HIV1-F1) (Human immunodeficiency virus type 1 lw12.3 isolate, UniProt Q70622); details: cited from earlier work
[12] = system: various cancer cells (855-2, HL-60, D32, D37, CRL 7712, 186 medulla, L1210, MDA-468); assay: functions of various cancer cells in presence of compounds (FIGS. 4-9); type: cell-based; details: summary statement
Protocol: (§1) Experiments were performed in which the functions of various cancer cells (855-2 and HL-60 leukemia cells, D32, D37 and CRL 7712 glioblastoma cell lines, 186 medulla tumor cell line, L1210 murine leukemia cell line, MDA-468 human breast tumor cell line) and normal cells (neutrophil leukocytes and bone marrow or peripheral blood stream cells) were assessed in the absence or presence of the compounds.

[13] = system: 855-2 leukemia cells; assay: growth inhibition of 855-2 cells, comparison with vincristine (FIG. 7); type: cell-based, human
Protocol: Vincristine, a highly toxic chemotherapeutic compound, is currently used in the treatment of leukemia and other malignancies. […] Vincristine was tested in doses of 0.1, 1, 10 and 100 μM.

[14] = system: normal cells (neutrophil leukocytes and bone marrow or peripheral blood cells)
Protocol: as §1

[15] = system: HL-60 cells; assay: colony formation (CFU) of leukemic cells in semi-solid medium (FIG. 4); type: cell-based, human
Protocol: as §1

[16] = system: 855-2 cells; assay: as above; type: cell-based, human
Protocol: as §1

[17] = system: Human Neutrophils; assay: superoxide generation by human neutrophils; details: 10 μM; mean + S.D., n = 11; PMN + PMA
[18] = not told

3-aminonaphthylhydrazide
ADPRT polymerase activity inhibition [1]: known to inhibit ADPRT polymerase activity

5(7)-nitroso-1(2H)-isoquinolinone [NOQ]
relative inhibition [2]: somewhat more inhibition than NOBP
inhibition ([2]; 10 μM): almost complete inhibition
inhibitory effects with different growth factors [2]: potent inhibitory effects
inhibition of 3H-thymidine uptake [3]: powerfully inhibited
cell killing [4]: complete killing
Virus Titer (log ID50) ([5]; 10 μM): 1.73 log ID50
anti-tumor and anti-HIV activity [6]: highly active
inhibition of thymidine uptake ([7]; 10 μM): almost complete inhibition
relative potency [7]: most potent inhibitor
inhibition of cell growth ([8]; 10 μM): almost complete inhibition
relative potency [8]: most potent inhibitors
IC50 ([9]; 25° C., 4 minutes, pH 7.5, read-out: I50 (concentration that inhibits ADPRT enzyme activity 50%)): 13 µM

Nc1ccc2oc(=O)ccc2c1 [ABP, 6-amino-1,2-benzopyrone]
Virus Titer (log ID50) ([5]; 500 μM): 4.50 log ID50
ADPRT binding [1]: binds specifically to ADRPT at the site that also binds to DNA
CFU stem cell toxicity ([10]; 1 μM): toxic

O=C(O)CN(CCN(CC(=O)O)CC(=O)O)CC(=O)O [EDTA]
molar excess required to remove zinc from Zn(HIV1-F1) [11]: 10 fold

Nc1ccc2oc(=O)ccc2c1I [IABP, 5-iodo-6-amino-1,2-benzopyrone]
Virus Titer (log ID50) ([5]; 250 μM): 4.66 log ID50
ADPRT polymerase activity inhibition [1]: known ADPRT polymerase activity inhibitors
CFU stem cell toxicity ([10]; 250 μM): toxic

O=c1ccc2cc([N+](=O)[O-])ccc2o1 [NO2 BP, 6-nitro-1,2-benzopyrone, reference compound]
effectiveness against tumor cells [12]: almost ineffective
Virus Titer (log ID50) ([5]; 250 μM): 4.93 log ID50

O=Nc1ccc2oc(=O)ccc2c1 [NOBP, 6-nitroso-1,2-benzopyrone]
relative inhibition [2]: somewhat more inhibition than NOBA
growth arrest in increasing FCS ([2]; 10 μM, increasing FCS concentrations): Growth arrest occurs irrespective of the concentration of FCS
inhibition ([2]; 10 μM): almost complete inhibition
inhibitory effects with different growth factors [2]: potent inhibitory effects
times more potent than vincristine ([13]; equal concentration): about 10 times
inhibition of 3H-thymidine uptake [3]: powerfully inhibited
effectiveness against tumor cells [12]: highly effective
effect on colony formation by normal cells [14]: minimal effect on normal cells
effect on viability of normal cells [14]: not to affect adversely the viability of normal cells
toxicity to normal cells [14]: not toxic to normal cells
ability to form colonies (CFU) [15]: inhibit the ability
cell killing [4]: complete killing
Virus Titer (log ID50) ([5]; 10 μM): 2.01 log ID50
ability to form colonies (CFU) [16]: inhibit the ability
anti-tumor and anti-HIV activity [6]: highly active
inhibition of thymidine uptake ([7]; 100 μM): almost complete inhibition
Generation of Superoxide by Human Neutrophils [17]: 34.1 ± 14.1 nmol 02^- /hr/10^5 cells
inhibition of cell growth ([8]; 10 μM): almost complete inhibition
inhibition of cell growth ([8]; 100 μM): almost complete inhibition
relative potency [8]: most potent inhibitors

NC(=O)c1ccccc1 [benzamide]
ADPRT polymerase activity inhibition [1]: known to inhibit ADPRT polymerase activity

O=Nc1ccc2oc(=O)ccc2c1I [compound 6, 5-iodo-6-nitroso-1,2-benzopyrone, reference compound]
permeation [18]: poor permeant molecule
biological action, times weaker than 6-N-1,2-benzopyrone ([6]; relative to 6-nitroso-1,2-benzopyrone): 10 times
inhibition of ADPRT [9]: relatively poor inhibitor

O=c1ccc2ccccc2o1 [coumarin, 1,2-benzopyrone]
ADPRT binding [1]: inhibitory ligand
ADPRT polymerase activity inhibition [1]: known to inhibit ADPRT polymerase activity

c1ccc2cnccc2c1 [isoquinoline]
ADPRT polymerase activity inhibition [1]: known to inhibit ADPRT polymerase activity

O=c1c(O)c(-c2ccc(O)c(O)c2)oc2cc(O)cc(O)c12 [quercetin]
ADPRT polymerase activity inhibition [1]: known to inhibit ADPRT polymerase activity

CC[C@]1(O)C[C@H]2CN(CCc3c([nH]c4ccccc34)[C@@](C(=O)OC)(c3cc4c(cc3OC)N(C=O)[C@H]3[C@@](O)(C(=O)OC)[C@H](OC(C)=O)[C@]5(CC)C=CCN6CC[C@]43[C@@H]65)C2)C1 [vincristine, reference compound]
concentration required for same growth inhibition as 10 μM NOBP ([13]; in vitro): 100 µM
